# Source: patent US11130733B2, “4-OXO-alkylated tetramic acid compound, preparation method and use thereof” (BEIJING JOEKAI BIOTECH. LLC, priority 2017, dated 2021)
# Key:
# Format in all cases: in vivo
# [1] = system: Drosophilae containing and expressing human Abeta42 gene; experiment: Pavlov's olfactory-related instantaneous memory test in Drosophila; settings: test medicament 100 μM, 50 μL per 100 drosophilae, 7 consecutive days; FIG. 1 and FIG. 2
# Source text: Drosophila has a classical learning and memory paradigm, known as Pavlov's olfactory-related instantaneous memory. During the training program, a group of about 100 drosophilae were exposed sequentially to two odors, i.e., 3-octanol and 4-methylcyclohexanol, each odor for 60 seconds, and to fresh air for 45 seconds therebetween. During exposure to the first odor, the drosophilae were electrocuted on their feet (1.5-second pulses at 3.5-second intervals, 60V), while no electrocution was exerted during exposure to the second odor. In order to detect “instantaneous memory” (also known as “learning”), drosophilae were transferred to the selection area in the T maze immediately after training and forced to choose between the two odors. The drosophilae in each T-maze arm were then captured, anesthetized, and counted. The behavior index was calculated from the distribution of drosophilae in the T maze. […] In each experiment, the age of the control group was matched with that of the experimental group.
# Pharmacodynamic evaluation of the candidate compounds: Drosophilae containing and expressing human Abeta42 gene were selected as a diseased control, and drosophilae containing but not expressing human Abeta42 gene were selected as a healthy control. The day after emergence of the drosophilae, male drosophilae were selected and fed. Starting from the third day, drosophilae were fed with a test medicament (100 μM, 50 μL per 100 drosophilae) for 7 consecutive days, 4 hours each day. The above memory test was performed on the drosophilae on the tenth day.
# CR mice = experiment: MTD experiment, dose gradient by gavage; settings: for Survival number: 10 mice per dose
# Method: Mice are commonly used rodents to evaluate the toxicity of a test sample and are also an important part of early preclinical safety evaluation. In this experiment, the toxicity of compound 50561 was tested by administering a dose gradient thereof to the mice by gavage and observing its toxicity.
# This experiment was designed such that for each dose centration, 10 mice were tested, including half males and half females. The males each weighed about 18-23 grams, and the females each weighed about 17-21 grams. They were randomly grouped by a simple randomization procedure. All the animals used in the experiment weighed between ±20% of the average body weight of their respective genders. If there are not enough animals in the study to meet the weight range required thereby, notify the responsible person of the project to take reasonable measures. Animals must be adapted to the laboratory for at least three days. During this period, daily cage observation was conducted once a day, and a detailed clinical observation was necessary before the experiment. Any animal with symptoms or physical abnormalities would be reported to the attending veterinarian and responsible person of the project, and excluded whenever possible. Animals suitable for experimentation will be assigned to respective experimental groups according to the random grouping method described above.
# During the experiment, after administration, all animals were observed continuously for 4 hours; from the end of administration till 3 days thereafter, observations were carried out twice each day, one in the morning and the other in the afternoon; and then observation was carried out once a day. Observations included but were not limited to: skin, hair, eyes, ears, nose, mouth, chest, abdomen, external genitals, limbs, and feet. The respiratory and circulatory systems, autonomic effects (such as salivation), and nervous system (such as tremors, convulsions, stress responses, and abnormal behaviors) should be focused on. Complete anatomical examinations would be performed on all animals that had died, were dying, or planned to be euthanized. Animals found dead outside of fixed working hours could be placed in the refrigerator overnight and dissected immediately on the next working day. At the end of the experiment (14th day after administration), all animals requiring autopsy would be euthanized and autopsied.
# External abnormalities in animals, such as palpable masses, should be examined in detail. The skin would be cut along the midline of the abdomen, and any subcutaneous mass would be confirmed in conjunction with the findings in the observations of animal symptoms. […] Diseased organs were removed, weighed, recoded, and kept in a fixative fluid.
# [2] = system: Transgenic mice containing APP/PS1; experiment: Water maze test of spatial memory in mice
# Method: Transgenic mice containing APP/PS1 were purchased from the Jackson Laboratory of the USA. The transgenic mice were crossbred with B6/C3 background mice. Their offspring were self-bred, genotyped, and each fed in a separate cage for about 8 months. One week before the test, a prescribed dose of medicament was administered to the mice by gavage each day, and then the spatial memory of the mice was measured by water maze test. A water tank with a diameter of 1.5 meters was filled with water at a constant temperature of 25 degrees, and skim milk was added to render the water surface opaque. A transparent platform was placed in a specific quadrant of the water tank. Distant hints were provided as spatial reference. The mice were put into the water and allowed to swim until they found the platform under the surface of water. The whole process was tracked by software, and the time from launching to finding the platform, called a latent period, was recorded thereby. If a mouse could not find the platform within 60 seconds, it was manually guided to the platform and its latent period was recorded as 60 seconds. Four rounds of the above tests were carried out on each mouse every day, with a one-hour interval between every two rounds of tests for the mice to rest. The latent period of each mouse on a day was the average of the four rounds of tests on the same day.
structure (smiles),measurement,setting,value
O=C1C=C(OCc2ccc(F)cc2)[C@H](Cc2ccccc2)N1 [Compound 50561],ability to improve the learning and memory of drosophilae,[1],best ability to improve the learning and memory of drosophilae
same,Remarks: condition of the body,CR mice; 250 mg/kg,in good condition.
same,Survival number,CR mice; 250 mg/kg by gavage,10
same,Remarks: Body weight decreased by,"CR mice; 250 mg/kg, quickly recovered","about 2 g, which was quickly"
same,Remarks: Body weight decreased by,CR mice; 500 mg/kg,about 2 g; individual activity
same,Remarks: condition of the body; organs of the dead individuals,CR mice; 500 mg/kg,in good condition. There
same,Survival number,CR mice; 500 mg/kg by gavage,8
same,Remarks: organs in dead individuals,CR mice; 750 mg/kg,No abnormality of organs
same,Survival number,CR mice; 750 mg/kg by gavage,0
same,Remarks: organs in dead individuals,CR mice; 1000 mg/kg,No abnormality of organs
same,Survival number,CR mice; 1000 mg/kg by gavage,0
same,maximum tolerance (MTD),"CR mice; CR mice, by gavage",< 500 mg/kg
same,ability to rescue the spatial memory of mice,"[2]; 0.1 mg/kg by gavage, FIG. 5",no ability to rescue the spatial memory of mice
same,ability to rescue the spatial memory of mice,"[2]; 1 mg/kg by gavage, FIG. 5",no ability to rescue the spatial memory of mice
same,ability to rescue the spatial memory of mice,"[2]; 10 mg/kg by gavage, FIG. 4",good ability to rescue the spatial memory of mice
